Values quoted from earlier work, collected in patent US20050282838A1, “Compounds, compositions, and methods” (priority 2003, published 2005).

test system: A549 cells; settings: data provided by National Cancer Institute

Row | Structure (SMILES) | GI50 [nM]
1 | O=c1[nH]cc(F)c(=O)[nH]1 [5-fluorouracil] | 1000
2 | CC(=O)O[C@H]1C(=O)[C@@]2(C)[C@H]([C@H](OC(=O)c3ccccc3)[C@]3(O)C[C@H](OC(=O)[C@H](O)[C@@H](NC(=O)c4ccccc4)c4ccccc4)C(C)=C1C3(C)C)[C@]1(OC(C)=O)CO[C@@H]1C[C@@H]2O [paclitaxel] | 4
3 | NC(=O)NO [hydroxyurea] | 500000
4 | COc1cccc2c1C(=O)c1c(O)c3c(c(O)c1C2=O)C[C@@](O)(C(=O)CO)C[C@@H]3O[C@H]1C[C@H](N)[C@H](O)[C@H](C)O1 [doxorubicin] | 63
